Assay results from patent US20190015467A1, “AGENT FOR PREVENTING OR AMELIORATING UNEVEN SKIN TONE” (KAO CORPORATION, priority 2017, published 2019).

Tests used:
[1] = system: skin at the elbow site of AA; assay: Organ culture of AA elbow skin with Torin 1: Fontana-Masson melanin staining and image analysis; assay type: cell-based, human; conditions: Torin 1 1 μM, tissue culture 5 days, vs absence of Torin 1; n=4, paired t-test p<0.05
Experimental: Meanwhile, the sections were subjected to melanin staining (Melanin Stain), separately. The sections were immersed in a 4% PFA/PBS solution for 10 minutes to be fixed. The fixed sections were washed with distilled water (DDW) for 5 minutes 3 times in total, and thereafter a Fontana-ammonia silver solution (Muto) was added dropwise thereto, followed by treatment at room temperature for 30 minutes. Then, the sections were washed with DDW for 5 minutes 3 times in total, and a Kernechtrot solution (Muto) was added dropwise thereto, followed by treatment for 3 minutes, for nuclear staining. The excess staining solution was washed away with DDW, followed by dehydration, clearing, and mounting with Malinol (Muto).
From skin at the elbow site of four AA women, skin tissues were collected through punch biopsy by a dermatologist. The collected tissues were halved with a scalpel, and the tissues were cultured for 5 days in the presence or absence of mTORC1 inhibitor, Torin 1 (Cayman Chemical, #10997) to a final concentration of 1 μM. […] Further, melanin was visualized by Fontana-Masson staining, and the epidermal stratum corneum thickness and the melanin deposition area were calculated using an image analysis software (Image J).

mTORC1 = assay: Organ culture of AA elbow skin with Torin 1: immunohistochemical analysis of mTOR phosphorylation; assay type: cell-based, human; conditions: Torin 1 1 μM, tissue culture 5 days; paired t-test p<0.05
Experimental: The technique of immunohistochemical analyses will be described. The sections were immersed in acetone or a 4% PFA/PBS solution for 10 minutes to be fixed. The fixed sections were washed with PBS-T (0.05% Tween-20/PBS) for 5 minutes 3 times in total and were blocked with a 1% BSA/PBS solution for 30 minutes. Subsequently, after the sections were subjected to overnight treatment at 4° C. with a primary antibody and were washed with PBS for 5 minutes 3 times in total, a secondary antibody (Jackson ImmunoResearch, 1:100 or 1:200) fluorescent labeled with FITC, RR-X, or Cy3 was added dropwise thereto, followed by treatment at 37° C. for 30 minutes. […]
The produced preparations were subjected to tissue observation and photographing using an inverted microscope (AxioVision, manufactured by Carl Zeiss Vision International GmbH) or a confocal laser microscope (LSM710, manufactured by Carl Zeiss Vision International GmbH). The captured images were analyzed using an image analysis software, and the expression levels of Pmel17, which is a marker of melanocyte growth and activation, cell proliferation marker Ki67, Filaggrin (FLG), Loricrin (LOR), and Transglutaminase 1 (TGM1), which are keratinization-related factors, were quantitated. Further, using RGB Profile Plot, which is an image analysis software, the fluorescence intensity distribution in the skin depth direction was investigated. […]

[2] = system: skin at the elbow site of AA; assay: Organ culture of AA elbow skin with Torin 1: immunohistochemical analyses of autophagy-related, keratinization and proliferation markers; assay type: cell-based, human; conditions: Torin 1 1 μM, tissue culture 5 days
Experimental: The technique of immunohistochemical analyses will be described. The sections were immersed in acetone or a 4% PFA/PBS solution for 10 minutes to be fixed. The fixed sections were washed with PBS-T (0.05% Tween-20/PBS) for 5 minutes 3 times in total and were blocked with a 1% BSA/PBS solution for 30 minutes. Subsequently, after the sections were subjected to overnight treatment at 4° C. with a primary antibody and were washed with PBS for 5 minutes 3 times in total, a secondary antibody (Jackson ImmunoResearch, 1:100 or 1:200) fluorescent labeled with FITC, RR-X, or Cy3 was added dropwise thereto, followed by treatment at 37° C. for 30 minutes. Thereafter, the sections were washed with PBS-T for 5 minutes 3 times in total and with PBS for 5 minutes once, mounted by aqueous encapsulant containing a nuclear-staining agent (H-1200: Vector Laboratories). Refer to Table 1 for the type of primary antibody, the tissue fixation conditions, and the concentration used.
The produced preparations were subjected to tissue observation and photographing using an inverted microscope (AxioVision, manufactured by Carl Zeiss Vision International GmbH) or a confocal laser microscope (LSM710, manufactured by Carl Zeiss Vision International GmbH). The captured images were analyzed using an image analysis software, and the expression levels of Pmel17, which is a marker of melanocyte growth and activation, cell proliferation marker Ki67, Filaggrin (FLG), Loricrin (LOR), and Transglutaminase 1 (TGM1), which are keratinization-related factors, were quantitated. Further, using RGB Profile Plot, which is an image analysis software, the fluorescence intensity distribution in the skin depth direction was investigated. The image analysis software used was “Image J” (available from imagej.nih.gov/ij/).
From skin at the elbow site of four AA women, skin tissues were collected through punch biopsy by a dermatologist. The collected tissues were halved with a scalpel, and the tissues were cultured for 5 days in the presence or absence of mTORC1 inhibitor, Torin 1 (Cayman Chemical, #10997) to a final concentration of 1 μM. In the tissue culture, a culture medium obtained by adding 10 v/v % Fetal Bovine Serum (FBS) and antibiotics (Antibiotic-Antimycotic) to Advanced-DMEM was used (both were from Life Technologies). After the completion of culture, frozen samples were rapidly produced, and immunohistochemical analyses were performed by the same procedure as in Example 1 (2) using their sections. Refer to Table 3 for the type of primary antibody, the tissue fixation conditions, and the concentration used. Further, melanin was visualized by Fontana-Masson staining, and the epidermal stratum corneum thickness and the melanin deposition area were calculated using an image analysis software (Image J).

[3] = system: cultured keratinocytes derived from human neonatal foreskin; assay: Gene expression by quantitative PCR in Torin 1-treated cultured keratinocytes; assay type: cell-based; conditions: 24 hours culture, ANOVA, Dunnett test p<0.05
Experimental: Torin 1 was added to cultured keratinocytes derived from human neonatal foreskin, and the mixture was cultured for 24 hours in an environment of 37° C. and 5% CO2. For the cell culture, a culture medium obtained by adding a predetermined growth additive (Humedia KG2, manufactured by KURABO INDUSTRIES LTD.) to Epilife culture medium (Life Technologies) was used. RNA was extracted from the keratinocytes, and the gene expression was analyzed by quantitative PCR using a Taqman probe (Life Technologies).

[4] = system: keratinocytes (neonatal foreskin); assay: Autophagy-activating action: LC3-II protein in keratinocytes by Western blotting; assay type: cell-based, human; conditions: 48 hours culture, same toosendanin concentration in both media, control solvent (ethanol)

Q: With `CCC(=O)N1CCN(c2ccc(-n3c(=O)ccc4cnc5ccc(-c6cnc7ccccc7c6)cc5c43)cc2C(F)(F)F)CC1` [Torin 1] as the compound, how does the “amount of melanin (melanin deposition area)” value [1] read?
A: statistically significantly decreased

Q: And the “epidermal stratum corneum thickness” value [1]?
A: statistically significantly decreased

Q: What about the “phosphorylation of mTOR (p-mTOR to mTOR)” value (mTORC1) of the same compound?
A: inhibition of phosphorylation of mTOR was observed

Q: And the “localization of ATG5-ATG12 in the epidermis” value [2]?
A: the localization was normalized

Q: What about the “localization of ATG16L1 in the epidermis” value [2] of the same compound?
A: the localization was normalized

Q: What about the “distribution of Filaggrin (FLG) in the epidermis” value ([2]; vs untreated skin) of the same compound?
A: restored to be localized by the epidermal granular layer

Q: And the “distribution of Loricrin (LOR) in the epidermis” value ([2]; vs untreated skin)?
A: restored to be localized by the epidermal granular layer

Q: And the “distribution of Transglutaminase 1 (TGM1) in the epidermis” value ([2]; vs untreated skin)?
A: restored to be localized by the epidermal granular layer

Q: And the “proliferating cells (number of Ki67 positive cells)” value ([2]; vs untreated skin)?
A: a decrease in proliferating cells was confirmed

Q: What about the LC3 protein ([2]; paired t-test p<0.05) of the same compound?
A: increased

Q: And the p62 protein aggregation ([2]; paired t-test p<0.05)?
A: decreased

Q: And the “gene expression of Involucrin (IVL)” value ([3]; depending on the dose)?
A: statistically significantly increased

Q: And the “gene expression of TGM1” value ([3]; depending on the dose)?
A: statistically significantly increased

Q: And the “gene expression of SKP2” value [3]?
A: statistically significantly reducing

Q: `CC(=O)O[C@@H]1C[C@H](O)[C@@]23CO[C@@H](O)[C@]1(C)[C@@H]2C[C@@H](O)[C@]1(C)[C@@H]3C(=O)[C@H](OC(C)=O)[C@@]2(C)[C@H](c3ccoc3)C[C@H]3O[C@]321` [toosendanin] was tested. Which “LC3-II protein in the cells” value [4] did it give?
A: LC3-II protein-increasing actions
